Laboratory results as given in patent publication US20230390326A1, “COMPOSITION COMPRISING CATIONIC SUBSTANCE, AND USE FOR SAME” (SUNGKWANG MEDICAL FOUNDATION, priority 2020, published 2023).
Peptide text beside a SMILES is read from it. * marks the point of attachment. Cbz = O=C(OCc1ccccc1)*

How the values were obtained:
perforin protein = test: Western blot of perforin protein in cultured NK cells; assay type: cell-based; settings: NK cells treated with MG132 to prevent intracellular protein degradation
Procedure: Protein extracts from NK cells were separated using 10% SDS-PAGE, and transferred to a polyvinylidene difluoride amersham Biosciences membrane for 90 minutes at the voltage of 120 V. The membrane was blocked in 3% bovine serum albumin (BSA)-containing tris-buffered saline-Tween [TBST; 0.2 M NaCl, 0.1% Tween-20, and 10 mM Tris (pH 7.4)] for 1 hour. The blocked membrane was incubated with a rabbit polyclonal anti-Perforin antibody (1:1000; ab180773, abcam) or a rabbit monoclonal anti-GAPDH antibody (1:1000; […], Cell signaling). After incubation, the membrane was incubated with anti-rabbit polyclonal IgG (1:5000; #7074, Cell Signaling Technology) for 1 hour at room temperature. After each step, the membrane was washed several times using TBST and bound antibodies were detected using an enhanced chemiluminescence detection system (Thermo Fisher Scientific Biosciences) according to manufacturer instructions In order to determine whether […] increases the amount of intracellular perforin, the NK cells of Example 1 were treated with 5 μg/ml of polyethylenimine, and cultured over time (0 hour, 3 hour, 6 hour, 12 hours, 24 hours, or 48 hours), and then Western blotting was performed on the cultured NK cells to identify the amount of granzyme B and perforin protein. […]

[1] = test system: triple negative breast cancer cell line MDA_MB231; test: In vitro assay of inducing activity of natural killer cells (CFSE-7AAD assay, apoptosis of target cells); assay type: cell-based; settings: NK cells cultured 48 hours with the substance, then mixed with MDA_MB231 at E:T 10:1 for 4 hours; target only 1.32, NK cells only 21.36
Procedure: Green fluorescence-labeled MDA MB 231 cells and NK cells were put into a 1.5 ml eppendorf tube in respective ratios, mixed, and reacted in a 37° C., CO2 5% incubator for 4 hours. After the reaction was over, the cells were stained with 7AAD (Invitrogen A1310) for 20 minutes and fixed. Through flow cytometry, the mixed cells were divided into two cell populations according to the presence or absence of green fluorescence, and the percentage of dead cells was measured and compared by group to analyze the activity.
In order to confirm the ability of […] to induce the activity of NK cells according to molecular weight and type, the NK cells of Example 1 were cultured for 48 hours after mixing with various molecular weights and types of polyethylenimine or with a control group.
Next, the cultured NK cells were washed, and re-suspended in a fresh culture medium. Thereafter, the NK cells and triple negative breast cancer cell line MDA_MB231 were mixed in an effector (E):target (T) ratio of 10:1 and cultured for 4 hours. Finally, the degree of apoptosis of the target cells in the cultured cells was quantitatively analyzed using the CFSE-7AAD assay.

Row | Compound | amount of perforin protein (perforin protein) | degree of apoptosis of target cells [1]
1 | CC(C)C[C@@H](C=O)NC(=O)[C@H](CC(C)C)NC(=O)[C@H](CC(C)C)NC(=O)OCc1ccccc1 [MG132] (Cbz-Leu-Leu-Leu-aldehyde) | increased | 
2 | Protamine |  | 25.31
